Assay results: BindingDB's records for doi:10.1016/j.bmcl.2006.01.056 (Bristol-Myers Squibb, 2006)

Biological target: T1, Kinesin-like protein KIF11 (Homo sapiens, UniProt P52732)
T1 sequence (P52732 whole entry): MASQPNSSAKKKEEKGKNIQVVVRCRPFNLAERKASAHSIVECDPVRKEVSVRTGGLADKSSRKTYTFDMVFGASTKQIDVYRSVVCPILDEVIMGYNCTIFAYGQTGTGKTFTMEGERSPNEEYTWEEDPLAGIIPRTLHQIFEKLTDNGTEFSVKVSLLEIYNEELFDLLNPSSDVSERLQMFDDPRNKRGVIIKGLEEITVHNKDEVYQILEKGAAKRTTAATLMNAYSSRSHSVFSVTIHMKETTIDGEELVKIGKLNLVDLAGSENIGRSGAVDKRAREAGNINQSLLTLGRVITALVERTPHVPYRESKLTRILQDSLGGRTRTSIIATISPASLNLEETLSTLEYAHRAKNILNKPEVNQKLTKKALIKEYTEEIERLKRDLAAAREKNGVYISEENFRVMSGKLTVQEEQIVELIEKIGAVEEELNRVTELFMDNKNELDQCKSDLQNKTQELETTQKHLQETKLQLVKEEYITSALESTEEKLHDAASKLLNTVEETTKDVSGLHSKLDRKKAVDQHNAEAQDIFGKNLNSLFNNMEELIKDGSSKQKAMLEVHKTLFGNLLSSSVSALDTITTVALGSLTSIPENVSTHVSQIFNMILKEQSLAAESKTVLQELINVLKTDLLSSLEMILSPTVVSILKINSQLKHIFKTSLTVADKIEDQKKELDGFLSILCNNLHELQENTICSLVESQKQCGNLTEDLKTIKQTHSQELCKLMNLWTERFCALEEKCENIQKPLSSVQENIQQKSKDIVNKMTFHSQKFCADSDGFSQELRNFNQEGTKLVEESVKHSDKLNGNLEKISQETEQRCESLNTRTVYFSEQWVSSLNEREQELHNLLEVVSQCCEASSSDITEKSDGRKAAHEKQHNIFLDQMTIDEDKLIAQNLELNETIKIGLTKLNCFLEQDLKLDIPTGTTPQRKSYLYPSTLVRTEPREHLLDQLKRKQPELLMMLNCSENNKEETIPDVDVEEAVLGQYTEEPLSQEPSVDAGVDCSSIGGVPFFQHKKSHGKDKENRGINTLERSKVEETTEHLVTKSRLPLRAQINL
Assay: Microtubule-Activated Eg5 ATPase Assay
Description: ATPase assays with Eg5 motor domain protein were performed using Kinase-Glo Luminescent Kit as described by the manufacturer (Promega).

Work on CN(C)C(=O)N1Cc2c(ccc3ccccc23)C(c2cccc(O)c2)C1 (stereo unspecified) [6-(3-hydroxyphenyl)-N,N-dimethyl-4-azatricyclo[8.4.0.0^{2,7}]tetradeca-1(10),2(7),8,11,13-pentaene-4-carboxamide] yielded an IC50 of 0.477 µM.
